The data set in a line: recombinant barcode read abundance after kanamycin selection (control-corrected) (log10(CPM+1)); higher = more efficient recombination; sequences stand for … in AGTGCAGAGAAAATCGGCCAGTTTTCTCTGCCTGCAGTCCGCATGCCGT…AGATTTATGCAGCGGACTGCCTTTCTCCCAAAGTGATAAACCGGACAGTATCATGGACCGGTTTTCCCGGTAATCCGTATTTGCAAGGTTGGTTTCACT; site = the 11-nt target. Put shortly: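 Each value is log10(CPM+1). It describes recombination efficiency, taken as averaged, control-corrected counts per million of barcodes at recombinant junctions. The pooled E. coli library paired targets with IS621 bridge RNA target-binding loops, was co-electroporated with a donor plasmid, and was plated twice on chloramphenicol/ampicillin LB agar (control) and twice on chloramphenicol/ampicillin/kanamycin containing 0.1 mM IPTG.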
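Also: IS621 recombinase and bridge RNA in Escherichia coli cells.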

Take “CGACCCTCTTGGGTTCTAACCTGTTGCCT (site CGACCCTCTAG)”: the “recombinant barcode read abundance (log10)” value was 1.74.

Regarding “CGACCCTCTTGGGTTCTAACCTGTTGCCT (site GGACCCTCTAG)”, the “recombinant barcode read abundance (log10)” value was found to be 0.17.

In the case of “CGACCCTCTTGGGTTCTAACCTGTTGCCT (site TGACCCTCTAG)”, the “recombinant barcode read abundance (log10)” value was 0.381.

On to “CGACGAGCTTGGGTTCTAACCTGTTGCGG (site CCACGAGCTCC)”, for which the “recombinant barcode read abundance (log10)” value is 0.352.

As to “CGACGAGCTTGGGTTCTAACCTGTTGCGG (site CGACGAGCTCC)”, the “recombinant barcode read abundance (log10)” value amounted to 1.22.

With “CGAGATCCTTGGGTTCTAACCTGTTGCAT (site CGAGATCCTAT)”, the “recombinant barcode read abundance (log10)” value turned out to be 1.29.

For the sequence “CGAGATCCTTGGGTTCTAACCTGTTGCAT (site CGAGGTACTAT)”, the “recombinant barcode read abundance (log10)” value was determined as 0.

Turning to “CGAGATCCTTGGGTTCTAACCTGTTGCCT (site CGACATCCTAG)”, the “recombinant barcode read abundance (log10)” value came out at 0.214.

In the case of “CGAGATCCTTGGGTTCTAACCTGTTGCCT (site CGAGATCCTAG)”, the “recombinant barcode read abundance (log10)” value came out at 0.678.

With “CGAGGTACTTGGGTTCTAACCTGTTGCAT (site CGAGATCCTAT)”, the “recombinant barcode read abundance (log10)” value amounted to 0.0262.

“CGAGGTACTTGGGTTCTAACCTGTTGCAT (site CGAGGTACTAT)”: the “recombinant barcode read abundance (log10)” value stood at 1.87.

“CGATACACTTGGGTTCTAACCTGTTGCCG (site CGATACACTCG)”: the “recombinant barcode read abundance (log10)” value is 0.571.

Consider “CGATACACTTGGGTTCTAACCTGTTGCCG (site CGATCCACTCA)”, for which the “recombinant barcode read abundance (log10)” value is 0.052.

In the case of “CGATCACCTTGGGTTCTAACCTGTTGCCT (site CGATCACCTAG)”, the “recombinant barcode read abundance (log10)” value came to 0.105.

In the case of “CGATCACCTTGGGTTCTAACCTGTTGCCT (site TTCGGCTCTTA)”, the “recombinant barcode read abundance (log10)” value came to 0.665.

In the case of “CGATCCACTTGGGTTCTAACCTGTTGCTG (site CGATACACTCG)”, the “recombinant barcode read abundance (log10)” value was 0.16.

Consider “CGATCCACTTGGGTTCTAACCTGTTGCTG (site CGATCCACTCA)”, for which the “recombinant barcode read abundance (log10)” value was 0.483.

With “CGATGGACTTGGGTTCTAACCTGTTGCTG (site AAGCTTGCTAG)”, the “recombinant barcode read abundance (log10)” value was 0.0171.

On to “CGATGGACTTGGGTTCTAACCTGTTGCTG (site CGATGGACTCA)”, for which the “recombinant barcode read abundance (log10)” value was determined as 1.81.

For the sequence “CGATTTCCTTGGGTTCTAACCTGTTGCCT (site CGATTTCCTAG)”, the “recombinant barcode read abundance (log10)” value is 0.0837.

Consider “CGATTTCCTTGGGTTCTAACCTGTTGCCT (site CGATTTCCTAT)”, for which the “recombinant barcode read abundance (log10)” value was 0.102.

Consider “CGCAATGCTTGGGTTCTAACCTGTTGCCT (site CGAAATGCTAG)”, for which the “recombinant barcode read abundance (log10)” value stood at 0.125.

Turning to “CGCAATGCTTGGGTTCTAACCTGTTGCCT (site CGCAATGCTAG)”, the “recombinant barcode read abundance (log10)” value was 0.07.

As to “CGCAATGCTTGGGTTCTAACCTGTTGCCT (site CGGAATGCTAG)”, the “recombinant barcode read abundance (log10)” value was 0.469.

With “CGCAATGCTTGGGTTCTAACCTGTTGCCT (site CGTAATGCTAG)”, the “recombinant barcode read abundance (log10)” value is 0.322.

Turning to “CGCAGCACTTGGGTTCTAACCTGTTGCCT (site AGCAGCACTAG)”, the “recombinant barcode read abundance (log10)” value is 0.067.

In the case of “CGCAGCACTTGGGTTCTAACCTGTTGCCT (site CGCAGCACTAG)”, the “recombinant barcode read abundance (log10)” value was 0.63.

As for “CGCCAGCCTTGGGTTCTAACCTGTTGCCT (site CGCCAGCCTAG)”, the “recombinant barcode read abundance (log10)” value worked out at 0.0113.

Take “CGCCAGCCTTGGGTTCTAACCTGTTGCCT (site CGCCTGCCTAG)”: the “recombinant barcode read abundance (log10)” value was found to be 0.

For “CGCCCTTCTTGGGTTCTAACCTGTTGCCT (site CGCCCTTCTAG)”, the “recombinant barcode read abundance (log10)” value came out at 0.0296.

For the sequence “CGCCCTTCTTGGGTTCTAACCTGTTGCCT (site TAAGGGACTTA)”, the “recombinant barcode read abundance (log10)” value was determined as 0.0823.

Regarding “CGCCGTACTTGGGTTCTAACCTGTTGCCT (site CGACGTACTAG)”, the “recombinant barcode read abundance (log10)” value is 0.264.
